Tested on: cough receptor
Assay: Cough receptor sensitivity test (nebulizer inhalation, C5)
Format: in vivo, human
Settings: seventeen healthy adults, inhaled by nebulizer for 15 seconds at intervals of one minute, 0.49 to 1,000 μM
Procedure: In the following Examples, 1 mL of an emulsifier (Tween 80) and 1 mL of 99.7% ethanol were added to 70 μL of the resultant extracted oil immediately before use, and the mixture was diluted with physiological saline (Otsuka) in Example 1 or with distilled water in Example 2, to thereby prepare solutions containing different concentrations of capsinoid. In the same way as above, 1 mL of an emulsifier (Tween 80) and 1 mL of 99.7% ethanol were added to 30.5 mg of capsaicin (manufactured by Sigma-Aldrich) immediately before use, and the mixture was diluted with physiological saline (Otsuka) in Example 1 or with distilled water in Example 2, to thereby prepare solutions containing different concentrations of capsaicin.
Seventeen healthy adults (mean age 36±2.6) inhaled the capsaicin solution prepared in Production Example (0.49 to 1,000 μM) by a nebulizer for 15 seconds at intervals of one minute, and the concentrations for causing five or more coughs by one aspiration (C5) were determined.
At a later date, the same test was performed for the same test subjects using the capsinoid solutions (0.49 to 1,000 μM) to determine C5, followed by comparison between C5 of the capsaicin solution and C5 of the capsinoid solution.

## COc1cc(CNC(=O)CCCC/C=C/C(C)C)ccc1O [capsaicin solution, capsaicin]
  C5 (concentration for causing five or more coughs by one aspiration): 2.02 µM
